Assay results: patent US7553832B2, “Methods and compositions for specific inhibition of protein splicing by small molecules” (Boston Biomedical Research Institute, priority 2005, dated 2009)
Values after ≈ are worked out from the molar mass of the structure shown. Marks after values point to notes of the source that are not given here.

How the values were obtained:
[1] = molecular target: T1, M. tuberculosis RecA intein (Mycobacterium tuberculosis, UniProt P9WHJ3); assay type: biochemical
T1 sequence (P9WHJ3 with tags, fused parts or gaps): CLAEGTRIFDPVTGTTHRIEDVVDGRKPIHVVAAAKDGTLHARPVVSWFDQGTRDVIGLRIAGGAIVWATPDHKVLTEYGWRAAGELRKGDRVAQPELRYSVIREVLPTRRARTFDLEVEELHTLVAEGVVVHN

BCG = BCG MIC; assay type: cell-based
Mtu H37Rv [2] = assay: Mtu H37Rv MIC; assay type: cell-based, M. tuberculosis
Mtu H37Rv [3] = assay: Alamar Blue reduction inhibition measured by TAACF; assay type: cell-based, M. tuberculosis; details: Mycobacterium tuberculosis, at 6.25 μg/ml, as measured by TAACF

SMILES	IC50 [1] [µM]	also measured
Oc1cc2c(cc1C(c1ccc(Cl)c(Cl)c1)N1CCCC1)OCO2 (stereo not drawn) [Compound 1]	5	
CCCN(CCC)S(=O)(=O)c1ccc(C(=O)SCC(=O)OCC)cc1 [Compound 2]	8	
CS(=O)(=O)c1cc(C(F)(F)F)cc(S(C)(=O)=O)c1S(C)(=O)=O [Compound 3]	10	BCG MIC (BCG): 20 µg/mL; Mtu H37Rv MIC (Mtu H37Rv [2]): 20^a μg/ml
CC(=O)c1cc([N+](=O)[O-])c(Sc2ccc(Cl)cc2)s1 [Compound 4]	5	
O=S(=O)(c1ccc(Br)cc1)c1snnc1-c1ccccc1 [Compound 6]	4	inhibition at 6.25 µg/mL (Mtu H37Rv [3]): 32%
O=S(=O)(c1ccc(Cl)c(Cl)c1)c1snnc1-c1ccccc1 [Compound 7]		inhibition at 6.25 µg/mL (Mtu H37Rv [3]): 96%
O=C1CSC(c2ccc(Cl)cc2)C(=O)N1c1ccc(C(F)(F)F)cc1 (stereo not drawn) [Compound 8]	5	
COc1ccc(NC(=O)C(Cl)=C(Cl)[S+]([O-])Cc2ccccc2)cn1 (stereo not drawn) [Compound 9]	10	BCG MIC (BCG): 5 µg/mL; Mtu H37Rv MIC (Mtu H37Rv [2]): 5^d μg/ml
O=C(Nc1ccccc1)c1nnsc1S(=O)(=O)c1ccc(Cl)cc1 [Compound 10]	8	
O=C(c1nnsc1[S+]([O-])c1ccc(Cl)cc1)N1CCCCC1 (stereo not drawn) [Compound 11]	4	BCG MIC (BCG): 5 µg/mL; Mtu H37Rv MIC (Mtu H37Rv [2]): 5 µg/mL
O=C(Nc1ccc(F)cc1)c1nnsc1S(=O)(=O)c1ccc(Cl)cc1 [Compound 12]	3	BCG MIC (BCG): 20 µg/mL; Mtu H37Rv MIC (Mtu H37Rv [2]): 10 µg/mL
O=C(CCl)N1CCN2C(=O)c3ccccc3C12c1ccc(Cl)cc1 (stereo not drawn) [Compound 13]	4	BCG MIC (BCG): 20 µg/mL; Mtu H37Rv MIC (Mtu H37Rv [2]): 10 µg/mL
N#CC1(C#N)C(c2cccc(I)c2)C(C(N)=O)N2C=Cc3ccccc3C21 (stereo not drawn) [Compound 17]	20	
N#CC1(C#N)C(c2ccccc2Cl)C1(C#N)C#N [Compound 21]	8	
CSC(Nc1ccc(F)cc1)=C(C#N)C(=O)c1ccco1 [Compound 22]	3	Mtu H37Rv MIC (Mtu H37Rv [2]): 20 µg/mL
O=C(Oc1ccc(Cl)cc1)c1snnc1-c1ccccc1 [Compound 23]	3	
N#CCSc1ccc(C#N)cc1 [Compound 24]	11	MIC (Mtu H37Rv [2]; Mycobacterium tuberculosis, H37RV): 5 µg/mL (≈ 28.7 µM)
C=CCn1c(Sc2ncnc3c2sc(=S)n3CC=C)nnc1-c1ccccc1 [Compound 27]	2	
N#CC(N)=C(C#N)NCc1ccccc1Sc1ccc(Cl)cc1 [Compound 29]	30	
CC1(C)CC(=O)c2c(S(C)(=O)=O)sc(C(=O)OCc3ccccc3)c2C1 [Compound 30]	5	BCG MIC (BCG): 20 µg/mL
N#Cc1nccnc1S(=O)(=O)c1cccs1 [Compound 31]	5	BCG MIC (BCG): 6 µg/mL; Mtu H37Rv MIC (Mtu H37Rv [2]): 10 µg/mL
COC(=O)c1sc(S(C)(=O)=O)c(C#N)c1-c1cc(C(C)(C)C)oc1C [Compound 33]	4	
O=S(=O)(c1cccc(C(F)(F)F)c1)c1snnc1-c1ccccc1 [Compound 35]	1	MIC (BCG; Mycobacterium tuberculosis variant bovis BCG, BCG, read-out: BCG MIC): 20 µg/mL (≈ 54 µM)
O=S(=O)(Cc1cccc(C(F)(F)F)c1)c1snnc1-c1ccccc1 [Compound 36]	5	
CC1(C)CC(=O)C2(C(=O)C1)C(c1ccc(Cl)cc1Cl)C2(C#N)C#N (stereo not drawn) [Compound 37]	5	
O=C(OCn1ncc(Cl)c(Cl)c1=O)c1cccc(C(F)(F)F)c1 [Compound 38]	0.8	

SMILES	IC50 [1] [µM]	also measured
Cn1cc(C(=O)c2cccc(Cl)c2Cl)cc1C(=O)C(Cl)(Cl)Cl [Compound 40]	5	
CCOC(=O)c1nnc(-c2ccccc2)nc1Sc1ccccc1C(=O)OC [Compound 41]	2	
COc1ccc(NC(=O)C(Cl)=C(Cl)[S+]([O-])Cc2ccc(C)cc2)cn1 (stereo not drawn) [Compound 43]	3	BCG MIC (BCG): 1 µg/mL; Mtu H37Rv MIC (Mtu H37Rv [2]): 2.5 µg/mL
Oc1cc(OCc2ccc(C(F)(F)F)cc2)ccc1-c1cc[nH]n1 [Compound 44]	5	
[O-][S+](c1ccc(C(F)(F)F)cc1)c1cnn2c(Cl)nnc2c1 (stereo not drawn) [Compound 45]	5	BCG MIC (BCG): 5 µg/mL; Mtu H37Rv MIC (Mtu H37Rv [2]): 2.5 µg/mL
COc1cccc(N(NC(=O)C(O)(c2cccc(C(F)(F)F)c2)c2cccc(C(F)(F)F)c2)C(=O)CCl)c1 [Compound 51]	2	
O=C(Nn1c(C2CCCCC2)nc2ccccc2c1=O)c1cc([N+](=O)[O-])cc([N+](=O)[O-])c1Cl [Compound 53]	1	BCG MIC (BCG): ~20 µg/mL
O=[N+]([O-])c1cc(C(F)(F)F)cc([N+](=O)[O-])c1Sc1nc2ccccc2[nH]1 [Compound 55]	15	BCG MIC (BCG): 5 µg/mL; Mtu H37Rv MIC (Mtu H37Rv [2]): 20 µg/mL
CCOC(=O)CSc1nc2c(c(-c3cccs3)c1C#N)CN(C)CC2 [Compound 56]	< 35	
O=C(CCl)c1ccc(Cc2ncc(C(F)(F)F)cc2Cl)s1 [Compound 57]	< 5	
O=C(c1c[nH]c(C(=O)C(Cl)(Cl)Cl)c1)c1cccc(Cl)c1Cl [Compound 59]	< 5	
O=C(c1c[nH]c(C(=O)C(Cl)(Cl)Cl)c1)c1ccc(Cl)cc1Cl [Compound 62]	< 5	
Cc1cc(Oc2c([N+](=O)[O-])cc(C(F)(F)F)cc2[N+](=O)[O-])ccc1Cl [Compound 64]	6	
Cc1cc(S(=O)(=O)c2ccc(C(F)(F)F)cc2[N+](=O)[O-])c(Cl)cc1Cl [Compound 66]	< 5	BCG MIC (BCG): >20 µg/mL
CCOC(=O)c1cnc2c(F)ccc(F)c2c1Oc1cncc(Cl)c1 [Compound 67]	< 5	
O=C(Sc1ccccc1)c1ccc2ncsc2c1 [Compound 68]	8	
Oc1cc2c(cc1C(c1ccc(C(F)(F)F)cc1)N1CCOCC1)OCO2 (stereo not drawn) [Compound 69]	< 5	
Oc1ccc(Br)cc1CNc1cccc(C(F)(F)F)c1 [Compound 70]	12	
CCOC(=O)c1cc(C#N)c(Sc2nnc(SCC3CC3)s2)nc1C(F)(F)F [Compound 71]	< 5	BCG MIC (BCG): 10 µg/mL; Mtu H37Rv MIC (Mtu H37Rv [2]): 10 µg/mL
CCOC(=O)c1cc(C#N)c(Sc2nnc(SC)s2)nc1C(F)(F)F [Compound 72]	< 5	BCG MIC (BCG): 10 µg/mL; Mtu H37Rv MIC (Mtu H37Rv [2]): 10 µg/mL
c1ccc(-c2cnc3nonc3n2)cc1 [Compound 74]	< 5	
O=C(Oc1cc(OC(=O)c2ccco2)cc(OC(=O)c2ccco2)c1)c1ccco1 [Compound 75]	< 5	
O=C(Oc1ccc(Br)cc1)c1ccco1 [Compound 76]	8	
O=C(Oc1ccc(C=Nc2ccc(F)cc2)cc1)c1ccco1 [Compound 77]	30	
O=C(Oc1ccc(C=Nc2ccc(F)cc2)cc1)c1cccs1 [Compound 78]	13	
Cc1nn(C(N)=S)c(O)c1C(c1cccc(Cl)c1Cl)C(C#N)C#N (stereo not drawn) [Compound 81]	12	
